Patent publication EP4748837A1, “AROMATIC AMIDE DERIVATIVE, AND PREPARATION METHOD THEREFOR AND USE THEREOF” (Zhejiang Hisun Pharmaceutical Co., Ltd., priority 2023, dated 2025)
pIC50: −log10 of the molar value.

What was measured:
[1] = test system: OVCAR-3 human ovarian adenocarcinoma tumor mass; test: Pharmacodynamic testing in subcutaneous OVCAR-3 xenograft model; type: in vivo, BALB/c nude mice; settings: for inhibitory effect on tumor growth (in words): 8 mg/kg, compared with the solvent control group and AMG650; for TGI% / Relative tumor volume (x±S) / Tumor volume (x±S): 35 days after administration, 8 mg/kg po QD, BALB/c nude mice; for Relative tumor volume (x±S) / Tumor volume (x±S): mean value ± standard error; for Tumor volume (x±S): in mm³ (unit assumed)
Procedure: Anti-tumor effects and Safeties of the Compounds 47 and 53 of the present invention in a BALB/c nude mouse animal model subjected to subcutaneous xenotransplantation of OVCAR-3 human ovarian adenocarcinoma tumor mass were evaluated.
BALB/c; nude mice, female, 6-7 weeks old, purchased from Jiangsu Gempharmatech Biotechnology Co., Ltd.
Mice in a solvent control group were given DMA: CrEL: 5%GS=10: 10: 80 (v: v: v). AMG650: a proper amount of AMG-650 was weigned, proper amounts of DMA, CrEL and 5% GS were added in sequence, and the mixture was well mixed by ultrasonic vortex to prepare 0.8 mg/mL drug preparations respectively, wherein DMA: CrEL : 5% GS=10: 10: 80 (v: v: v).
Compound 47: a proper amount of Compound 47 was added with proper amounts of DMA, CrEL and 5% GS in sequence, and evenly mixed by ultrasonic vortex to prepare 0.8 mg/mL drug preparations respectively, wherein DMA, CrEL and 5% GS=10: 10: 80 (v: v: v).
Compound 53: a proper amount of Compound 53 was weighed, proper amounts of DMA, CrEL and 5% GS were added in sequence, and the mixture was well mixed by ultrasonic vortex to prepare 0.8 mg/mL drug preparations respectively, wherein DMA: CrEL : 5% GS=10: 10: 80 (v: v: v).
An appropriate OVCAR-3 tumor-bearing animal was selected, and a 1 mm×1 mm×1 mm OVCAR-3 tumor mass was acquired aseptically and placed into normal saline for later use, which was used for subcutaneous tumor inoculation in a right side of back of the BALB/c nude mice.
About 1 mm×1 mm×1 mm OVCAR-3 tumor mass was subcutaneously inoculated in the right side of back of the female BALB/c nude mice. When an average tumor volume reached about 100-250 mm^3, the mice were randomly grouped based on tumor size, with 6 mice in each group.
Animals in each group were given the test compound once per day according to an animal weight at a fixed time every day by oral administration (po), the animals started to be administered with the test compound for the first time on the day of grouping for 35 consecutive days, and the animal weight was recorded every day.
The 1st group (G1) was a solvent control group; and
The 2nd-4th groups […] were orally administered with AMG-650, Compound 47 and Compound 53 at an administration dosage of 8 mg/kg once per day (QD).

HT-29 cells = test: Inhibition of HT-29 cell proliferation (CellTiter-Glo cell viability); type: cell-based; settings: Homo sapiens; HT-29 cells (TP53 R273H mutation), 120 hours culture with compound; read-out: IC50
Outline: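 HT-29 cells (TP53 R273H) in McCOY's 5A with 10% FBS, seeded 1000 cells/well overnight, then exposed to compound at 1000 nM–0.015 nM final for 120 hours at 37°C. Viability by CellTiter-Glo luminescence versus 0.3% DMSO control; IC50 by nonlinear regression of log concentration–inhibition.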

Row | SMILES | inhibitory effect on tumor growth (in words) [1] | TGI% [1] [%] | Relative tumor volume (x±S) [1] | Tumor volume (x±S) [1] | pIC50 (HT-29 cells)
1 | CCS(=O)(=O)Nc1ccc(C(=O)Nc2ccc(-c3ncn(C)n3)c(OCC(F)(F)F)c2)c(N2CCC3(CC2)CC3)c1 [Example 47, 4-(ethylsulfonamido)-N-(4-(1-methyl-1H-1,2,4-triazol-3-yl)-3-(2,2,2-trifluoroethoxy)pheny 1)-2-(6-azaspiro[2.5]octan-6-yl)benzamide] | more significant inhibitory effect on tumor growth | 95.5 | 0.22±0.11 | 40±20 | 9.27
2 | CCS(=O)(=O)Nc1ccc(C(=O)Nc2ccc(-c3ncccn3)c(OCC(F)(F)F)c2)c(N2CCC3(CC2)CC3)c1 [Example 53, 4-(ethylsulfonamido)-N-(4-(pyrimidin-2-yl)-3-(2,2,2-trifluoroethoxy)phenyl)-2-(6-azaspiro[2.5]octan-6-yl)benzamide] | more significant inhibitory effect on tumor growth | 98.0 | 0.10±0.04 | 21±9 | 8.17
